According to EP0705258B1, “AZOLYL-CYCLIC AMINE DERIVATIVES WITH IMMUNOMODULATORY ACTIVITY” (Knoll AG, priority 1993, dated 1995):
Structures can show the parent of a compound that is named as a salt.

What was measured:
[1] = tested on: lymphocyte proliferation (BALB/c responder and mitomycin C treated C57BL/6 stimulator spleen cells); test: Mixed Lymphocyte Reaction (Test A), one-way MLR, tritiated thymidine incorporation; assay type: cell-based, mice; conditions: concentration causing 50% inhibition of lymphocyte proliferation, by linear interpolation, ≤ = active at this concentration but not tested at lower doses
Method: A mixed lymphocyte reaction (MLR) occurs when lymphocytes from two genetically dissimilar individuals, or inbred strains of mice are cultured together. An MLR results in the activation and proliferation of lymphocytes, which is measured by the incorporation of radiolabelled thymidine into the cellular DNA synthesised during cell division. A 'one-way' MLR is used to determine the immunosuppressive activity of test compounds in vitro. In this reaction one population of spleen cells serves as the stimulator cells and is treated with mitomycin C to prevent cell division. Spleen cells from a second allogeneic population (responder cells) are untreated and when mixed with the stimulator cells are able to undergo division which is measured. The degree of proliferation is measured in the presence and absence of test compound to assess the immunosuppressive activity of the compound.
The techniques for carrying out lymphocyte proliferation assays including MLRs are well known, eg Bradley, pages 156-166, in Mishell and Shiigi, Eds. Selected Methods in Cellular Immunology (Freeman, San Francisco, 1980); and Battisto et al, methods in Enzymology 1987; 150: 83-91. Various slight modifications of these techniques are in use and that used herein is described in Gibb, Webber and Bowen, J Immunological Methods 1985; 81: 107-113.
Cell suspensions obtained from the spleens of female BALB/c and C57BL/6 strain mice of between 6 and 9 weeks of age were used as sources of responder and stimulator cells respectively. The mice were killed using a rising concentration of CO2 and the spleens removed aseptically and teased using a scalpel and forceps to produce a single cell suspension in Hanks balanced salt solution (HBSS). The suspensions were filtered through cell strainers (Falcon), sedimented by centrifugation and resuspended in Tris-buffered ammonium chloride pH 7.2 (medium D) to lyse the erythrocytes. The cells were sedimented again and washed twice in HBSS before resuspending in complete RPMI 1640 tissue culture medium (medium E). The C57BL/6 cells were resuspended to 9 mls per spleen and a solution of mitomycin C at 400 µg/ml in medium E added to give a final concentration of 40 µg/ml. After incubation of the C57BL/6 cells at 37°C for 30 minutes in an atmosphere of 5% CO2 and 95% air, the cells were sedimented and washed 3 times in medium E. Both cell suspensions were diluted in medium E to 5 x 10^6 cells/ml. 100µl of each of the responder and stimulator cell suspensions were aliquoted into the wells of 96 well flat bottom microtitre plates containing 50 µl of test compound at an appropriate dilution (initially 50 µM diluted in medium E from a stock solution at 100 mM in dimethyl sulphoxide) giving a final test compound concentration of 10 µM (final dilution). Compounds active at this concentration were tested at further final dilution of 1 µM, 0.1 µM and 0.01 µM and 0.001 µM to determine the concentration of test compound which causes 50% inhibition of the immune response (IC50). After four days of culture at 37°C in a humidified atmosphere of 5% CO2 and 95% air, 1 µCi of tritiated thymidine in 20 µl of medium E was added to each well and the plates incubated for a further 24 hours. Cells were then harvested onto Inotech G7 glass fibre filter mats using an Inotech cell harvester. The filters were transferred to vials to which 2 ml of Packard Emulsifier-Safe scintillation fluid was added and the radioactivity from the incorporated thymidine was counted in a Packard liquid scintillation counter. The counts per minute (CPM) reflect the degree of lymphocyte proliferation. The data were analysed to determine the percentage inhibition of lymphocyte proliferation by the test compound. […]

[2] = tested on: tumour necrosis factor-α (TNF-α); test: Mouse Tumour Necrosis Factor Test (Test B), mouse endotoxin shock model, serum TNF-α by ELISA; assay type: in vivo, BALB/c mice; conditions: minimum effective oral dose giving significant reduction in serum TNF-α of ≥35%, dosed 2 h before LPS i.p., ≤ = active at dose given but not tested at lower doses; for minimal effective dose: Mus musculus, read-out: MTNF:MED
From the text: Preferred compounds of the present invention are active in an in-vivo test which determines the ability of the compounds to inhibit the release of tumour necrosis factor-α (TNF-α) in a mouse endotoxin shock model (Test B). This model is similar to that described by Zuckerman and Bendele (1989), Infection and Immunity 57 (10): p3009-3013.
Each compound of formula I was combined with a carrier of a solution of 1.5% v/v sorbitan esters under the trade name Tween 80 and 0.25% v/v cellosize in sterile water (100 µl) and was administered orally to a group of four BALB/c mice. The concentration of compound was such as to provide dosages selected from 100, 30, 10, 3, 1, 0.1 and 0.03 mg/kg. Two hours after such oral administration, lipopolysaccharide (LPS) (E. coli 0127:B8) (100 µg) in sterile water (0.2 ml) was administered intraperitoneally to the test mice.
A control group of eight BALB/c mice was treated in a similar manner as the test group except that no test compound was included with the carrier.
One hour after LPS administration the mice were killed and blood was collected by cardiac puncture. The blood was incubated at 20°C for 2 hours and the serum was separated from the clotted blood following centrifugation. Serum tumour necrosis factor-α (TNF-α) levels were assayed by an enzyme-linked immunosorbent assay (ELISA) and the concentration of TNF-α in each of the drug-treated groups was compared with the control group by one-way analysis of variance followed by a multiple t-test.
The ELISA was carried out by coating a 96-well vinyl assay plate (Costar) overnight at 4°C with 50 µl per well of 2 µg/ml hamster anti-mouse TNF monoclonal antibody in 0.1M sodium hydrogen carbonate buffer at pH 8.2. After washing the plate with phosphate buffered saline (PBS) containing 0.05% v/v sorbitan esters under the trade name Tween 20 (wash buffer), a blocking/dilution buffer (10% sheep serum in PBS containing 0.1% v/v sorbitan esters under the trade name Tween 20 (200 µl)) was aliquoted to each well and incubated at 37°C for 0.5 hours. After aspirating the blocking buffer, the serum samples and pure TNF (as a standard) diluted in blocking/dilution buffer, were added to the wells and incubated at 37°C for 2 hours. After washing with the wash buffer, a polyclonal rabbit anti-mouse TNF-α antibody in blocking/dilution buffer (100 µl of a 1 in 10,000 dilution) was added and incubated for a further 1.5 hours at 37°C. After further washes, anti-rabbit IgG peroxidase conjugate (100 µl of a 1 in 4000 dilution) was added and incubated at 37°C for 0.5 hours. After further washing, the substrate solution (100 µl per well of 0.1 mg/ml 3,3', 5,5'-tetramethylbenzidine dihydrochloride in 0.1M phosphate citrate buffer, pH 5.0, to which 2 µl of 30% hydrogen peroxide per 10 ml was added just before use) was added and the colour allowed to develop. The reaction was stopped by the addition of 1M sulphuric acid (25 µl) and the optical density read in a multichannel spectrophotometer at 450 nm. The mean TNF-α concentration was determined by comparison with the standard curve and the mean TNF-α concentration for each group compared with that produced by the control group. Drug treatments which cause a statistically significant reduction in TNF-α concentration of ≥35% at a single dose at 100 mg/kg or less were considered active.

| Compound | IC50 ([1]; Mus musculus) | minimal effective dose [2] | also measured |
| --- | --- | --- | --- |
| 4-[2-(4-Methylimidazol-1-yl)ethyl]-1-(3-phenylpropyl)piperidine and 4-[2-(5-Methylimidazol-1-yl)ethyl]-1-(3-phenylpropyl)piperidine [Example 118] |  |  | IC50 [1]: 1400 nM; MTNF:MED [2]: ≤100 mg/kg |
| O=C(CCc1ccccc1)N1CCC(CCn2ccnc2)CC1 [Example 50, 4-[2-(imidazol-1-yl)ethyl]-1-(3-phenylpropionyl)piperidine] | 200 nM |  |  |
| Cl.Cl.O=C(CCc1ccccc1)N1CCCCC1CCn1ccnc1 (stereo not shown) [Example 52, 2-[2-(Imidazol-1-yl)ethyl]-1-(3-phenylpropionyl)piperidine dihydrochloride] |  | 100 mg/kg |  |
| O=C(CCc1ccccc1)N1CCCC(Cn2ccnc2)C1 (stereo not shown) [Example 53, 3-Imidazol-1-ylmethyl-1-(3-phenylpropionyl)-piperidine] |  | 30 mg/kg |  |
| O=C(CCc1ccccc1)N1CCC(CCCn2ccnc2)CC1 [Example 56, 4-[3-(Imidazol-1-yl)propyl]-1-(3-phenylpropionyl)piperidine] | ≤ 1000 nM |  |  |
| Cc1nccn1CCC1CCN(C(=O)CCc2ccc(Cl)cc2)CC1 [Example 57, 1-[3-(4-Chlorophenyl)propionyl]-4-[2-(2-methylimidazol-1-yl)ethyl]piperidine] | ≤ 1000 nM | 100 mg/kg |  |
| CC(C)c1nccn1CCC1CCN(C(=O)CCc2ccccc2)CC1 [Example 58, 4-[2-(2-Isopropylimidazol-1-yl)ethyl]-1-(3-phenylpropionyl)piperidine] | 4 nM |  |  |
| CCCCCCCCCCCc1nccn1CCC1CCN(C(=O)CCc2ccccc2)CC1 [Example 62, 1-(3-Phenylpropionyl)-4-[2-(2-undecylimidazol-1-yl)ethyl]piperidine] | 1900 nM |  |  |
| Cc1nc2ccccc2n1CCC1CCN(C(=O)CCc2ccccc2)CC1 [Example 65, 2-Methyl-1-{2-[1-(3-phenylpropionyl)-piperidin-4-yl]ethyl}benzimidazole] | 3800 nM |  |  |
| CCc1nccn1CC1CCN(C(=O)CCc2ccccc2)CC1 [Example 66, 4-(2-Ethylimidazol-1-ylmethyl)-1-(3-phenylpropionyl)piperidine] | ≤ 1000 nM |  |  |
| Cc1nccn1CCC1CCN(C(=O)CCc2ccccc2)CC1 [Example 72, 4-[2-(2-Methylimidazol-1-yl)ethyl]-1-(3-phenylpropionyl)piperidine] | 30 nM |  |  |
| Cc1nccn1CCC1CCN(C(=O)CCCc2ccccc2)CC1 [Example 82, 4-[2-(2-Methylimidazol-1-yl)ethyl]-1-(4-phenylbutyroyl)piperidine] | ≤ 1000 nM |  |  |
| O=C(CCCc1ccccc1)N1CCC(CCn2ccnc2)CC1 [Example 85, 4-[2-(Imidazol-1-yl)ethyl]-1-(4-phenylbutyroyl)piperidine] | 600 nM |  |  |
| c1ccc(SCCN2CCC(CCn3ccnc3)CC2)cc1 [Example 86, 4-[2-(imidazol-1-yl)ethyl]-1-(2-phenylthioethyl)piperidine] | 2600 nM | ≤ 10 mg/kg |  |
| O=C(CCN1CCC(CCn2ccnc2)CC1)c1ccccc1 [Example 89, 4-[2-(Imidazol-1-yl)ethyl]-1-(3-oxo-3-phenylpropyl)piperidine] |  | ≤ 30 mg/kg |  |
| O=C(c1ccccc1Cl)c1nccn1CCC1CCN(CCCc2ccccc2)CC1 [Example 92, 4-{2-[2-(2-Chlorobenzoyl)imidazol-1-yl]-ethyl}-1-(3-phenylpropyl)piperidine] |  | ≤ 10 mg/kg |  |
| Cc1ccc(CCC(=O)N2CCC(CCn3ccnc3C)CC2)cc1 [Example 94, 4-[2-(2-methylimidazol-1-yl)ethyl]-1[3-(4-methylphenyl)propionyl]piperidine] | ≤ 1000 nM |  |  |
| c1ccc(CCCN2CCN(CCn3ccnc3)CC2)cc1 [Example 95, 1-[2-imidazol-1-yl)ethyl]-4-(3-phenylpropyl)piperazine trihydrochloride] | 2800 nM | ≤ 3 mg/kg |  |
| c1ccc(CCCC2CCN(CCn3cncn3)CC2)cc1 [Example 97, 1-[2-(1H-1,2,4-triazol-1-yl)ethyl]-4-(3-phenylpropyl)-piperidine dihydrochloride] | 2300 nM |  |  |
| c1ccc(CCCN2CCC(CCCn3ccnc3)CC2)cc1 [Example 104, 4-[3-(Imidazol-1-yl)propyl]-1-(3-phenylpropyl)piperidine] | ≤ 1000 nM | ≤ 100 mg/kg |  |
| Cc1nccn1CCC1CCN(CCCc2ccc(Cl)cc2)CC1 [Example 105, 1-[3-(4-Chlorophenyl)propyl]-4-[2-(2-methylimidazol-1-yl)ethyl]piperidine] | ≤ 1000 nM |  |  |
| c1ccc(CCCN2CCC(CCn3cnc(-c4ccccc4)c3-c3ccccc3)CC2)cc1 [Example 108, 4-[2-(4,5-Diphenylimidazol-1-yl)ethyl]-1-(3-phenylpropyl)piperidine] | 1200 nM |  |  |
| c1ccc(CCCN2CCC(CCn3cncn3)CC2)cc1 [Example 111, 1-(3-Phenylpropyl)-4-[2-(1H-1,2,4-triazol-1-yl)ethyl]piperidine] | 7300 nM | ≤ 10 mg/kg |  |
| c1ccc(CCCN2CCC(CCn3ccnn3)CC2)cc1 [Example 119, 1-(3-Phenylpropyl)-4-[2-(1H-1,2,3-triazol-1-yl)ethyl]piperidine] | 2400 nM |  |  |
| COc1ccc(CCCN2CCC(CCn3ccnc3)CC2)cc1 [Example 124, 4-[2-(Imidazol-1-yl)ethyl]-1-[3-(4-methoxyphenyl)propyl]piperidine] |  | ≤ 30 mg/kg |  |
